# Measurements from US10941132B2, “Pyrazole derivatives” (HUA MEDICINE (SHANGHAI) Ltd., priority 2016, dated 2021).
# Biological target: T1, recombinant rat mGluR5 (Rattus norvegicus, UniProt P31424)
# T1 construct: expressed in transfected cells
# Test: Functional calcium flux assay (FLIPR), antagonist evaluation against glutamate-evoked [Ca2+]i increase
# Assay type: cell-based
# Details: Table 1; HEK293 cells stably expressing recombinant rat mGluR5; 15 min incubation of test compound, then submaximal glutamate; read-out: IC50 value (FLIPR assay)
# Experimental: Functional Calcium Clux Assay Methodology
# For functional assays, HEK293 cells stably expressing recombinant rat mGluR5 were seeded in 384-well plates and dye loaded using Fluo-8. Cells were then washed to remove the un-incorporated dye. Antagonist evaluation was performed following a 15 min incubation of the test compound followed by the addition of submaximal concentration of glutamate. Intracellular calcium ([Ca^2+]i) measurements were performed using a fluorometric imaging plate reader (FLIPR, Molecular Devices). The glutamate-evoked increase in [Ca^2′]i in the presence of the test compounds was compared to the response to glutamate alone (the positive control). Antagonist inhibition curves were fitted with a 4-parameter logistic equation giving IC50 values, and Hill coefficients using an iterative nonlinear curve fitting algorithm.
# The tables below provide IC50 data in this assay. In the activity column, A=IC50>1,000 and ≤5,000 nM; B=IC50>500 and ≤1,000 nM and C=IC50≤500 nM.
# T1 sequence (P31424 21-1203): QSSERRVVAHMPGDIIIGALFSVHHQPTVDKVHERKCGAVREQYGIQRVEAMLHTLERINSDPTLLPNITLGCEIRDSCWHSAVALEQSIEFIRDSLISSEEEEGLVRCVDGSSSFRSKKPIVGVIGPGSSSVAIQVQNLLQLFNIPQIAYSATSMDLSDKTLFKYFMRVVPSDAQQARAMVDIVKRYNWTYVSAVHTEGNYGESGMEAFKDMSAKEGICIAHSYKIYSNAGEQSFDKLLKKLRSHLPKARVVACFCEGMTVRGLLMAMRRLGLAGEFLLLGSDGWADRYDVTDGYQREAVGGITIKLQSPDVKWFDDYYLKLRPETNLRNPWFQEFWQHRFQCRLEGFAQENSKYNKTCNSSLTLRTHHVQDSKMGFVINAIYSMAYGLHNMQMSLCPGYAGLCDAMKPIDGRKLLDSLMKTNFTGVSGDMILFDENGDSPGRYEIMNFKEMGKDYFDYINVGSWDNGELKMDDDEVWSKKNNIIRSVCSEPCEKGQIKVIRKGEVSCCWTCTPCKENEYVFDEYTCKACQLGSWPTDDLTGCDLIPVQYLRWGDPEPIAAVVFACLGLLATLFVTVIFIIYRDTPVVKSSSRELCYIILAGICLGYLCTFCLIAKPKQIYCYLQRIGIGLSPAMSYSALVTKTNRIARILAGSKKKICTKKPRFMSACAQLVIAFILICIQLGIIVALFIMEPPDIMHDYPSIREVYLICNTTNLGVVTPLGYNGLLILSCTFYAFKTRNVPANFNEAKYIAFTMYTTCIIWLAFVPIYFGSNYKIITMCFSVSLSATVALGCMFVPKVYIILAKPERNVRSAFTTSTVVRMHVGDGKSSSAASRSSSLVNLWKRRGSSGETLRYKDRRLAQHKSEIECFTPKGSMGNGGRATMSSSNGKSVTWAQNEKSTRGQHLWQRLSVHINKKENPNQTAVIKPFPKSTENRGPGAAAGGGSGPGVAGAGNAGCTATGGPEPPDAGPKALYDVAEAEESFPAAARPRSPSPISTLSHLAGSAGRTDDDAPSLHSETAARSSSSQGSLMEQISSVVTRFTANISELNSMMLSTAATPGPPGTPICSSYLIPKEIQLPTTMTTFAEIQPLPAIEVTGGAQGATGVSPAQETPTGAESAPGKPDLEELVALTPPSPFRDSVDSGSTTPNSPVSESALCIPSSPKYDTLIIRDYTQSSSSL
row,SMILES,IC50 [nM]
1,"COc1c(C#Cc2ccccn2)cnn1-c1ccc(F)cn1 [Compound 62, 5-fluoro-2-(5-methoxy-4-(pyridin-2-ylethynyl)-1H-pyrazol-1-yl)]",≤ 500
2,"Cc1nn(-c2ccc(F)cn2)cc1C#Cc1ccccn1 [Compound 63, 5-fluoro-2-(3-methyl-4-(pyridin-2-ylethynyl)-1H-pyrazol-1-yl)]",≤ 500
3,"COCCOc1nn(-c2ccc(F)cn2)cc1C#Cc1ccccn1 [Compound 64, S-fluoro-2-(3-(2-methoxyethoxy)-4-(pyridin-2-ylethynyl)-1H-pyrazol-1-yl)pyridine]",500 to 1000
4,"FC(F)(F)Oc1ccc(-n2cc(C#Cc3cnccn3)cn2)cc1 [Compound 65, 2-((1-(4-(trifluoromethoxy)phenyl)-1H-pyrazol-4-yl)ethyny)pyrazine]",1000 to 5000
5,"Fc1ccc(-n2cc(C#Cc3ccccn3)c(OC(F)F)n2)nc1 [Compound 68, 2-(3-(difluoromethoxy)-4-(pyridin-2-ylethynyl)-1H-pyrazol-1-yl)-5-fluoropyridine]",≤ 500
6,"N#Cc1cc(F)cc(-n2cc(C#Cc3ccccc3)cn2)c1 [Compound 74, 3-fluoro-5-(4-(phenylethynyl)-H-pyrazol-1-yl)benzonitrile]",1000 to 5000
7,"N#Cc1cc(F)cc(-n2cc(C#Cc3ccccn3)cn2)c1 [Compound 75, 3-fluoro-5-(4-(pyridin-2-ylethynyl)-1H-pyrazol-1-yl)benzonitrile]",≤ 500
8,"N#Cc1cc(F)cc(-n2cc(C#Cc3cccnc3)cn2)c1 [Compound 76, 3-fluoro-5-(4-(pyridin-3-ylethynyl)-1H-pyrazol-1-yl)benzonitrile]",1000 to 5000
9,"N#Cc1cc(F)cc(-n2cc(C#Cc3cccc(Cl)c3)cn2)c1 [Compound 77, 3-fluoro-5-(4-(3-chloro-phenylethynyl)-1H-pyrazol-1-yl) benzonitrile]",500 to 1000
10,"N#Cc1cc(F)cc(-n2cc(C#Cc3ncccn3)cn2)c1 [Compound 78, 3-fluoro-5-(4-(pyrimidin-2-ylethynyl)-1H-pyrazol-1-yl) benzonitrile]",≤ 500
11,"N#Cc1cc(F)cc(-n2cc(C#Cc3ccncc3)cn2)c1 [Compound 79, 3-fluoro-5-(4-(pyridin-4-ylethynyl)-1H-pyrazol-1-yl)benzonitrile]",≤ 500
12,"N#Cc1cc(F)cc(-n2cc(C#Cc3cnccn3)cn2)c1 [Compound 80, 3-fluoro-5-(4-(pyrazin-2-ylethynyl)-1H-pyrazol-1-yl)benzonitrile]",1000 to 5000
13,"Fc1ccc(-n2cc(C#Cc3ccccc3)cn2)cc1 [Compound 81, 1-(4-fluorophenyl)-4-(phenylethynyl)-1H-pyrazole]",≤ 500
14,"Fc1ccc(-n2cc(C#Cc3ccccn3)cn2)cc1 [Compound 82, 2-((1-(4-fluorophenyl)-1H-pyrazol-4-yl)ethynyl)pyridine]",≤ 500
15,"Fc1ccc(-n2cc(C#Cc3cccnc3)cn2)cc1 [Compound 83, 3-((1-(4-fluorophenyl)-1H-pyrazol-4-yl)ethynyl)pyridine]",≤ 500
16,"Fc1ccc(-n2cc(C#Cc3cccc(Cl)c3)cn2)cc1 [Compound 84, 4-((3-chlorophenyl)ethynyl)-1-(4-fluorophenyl)-1H-pyrazole]",≤ 500
17,"Fc1ccc(-n2cc(C#Cc3ccnc(Cl)c3)cn2)cc1 [Compound 85, 2-chloro-4-((1-(4-fluorophenyl)-1H-pyrazol-4-yl)ethynyl)pyridine]",≤ 500
18,"Fc1ccc(-n2cc(C#Cc3ncccn3)cn2)cc1 [Compound 86, 2-((1-(4-fluorophenyl)-H-pyrazol-4-yl)ethynyl)pyrimidine]",≤ 500
19,Fc1ccc(-n2cc(C#Cc3ccncc3)cn2)cc1 [Compound 87],≤ 500
20,"Fc1ccc(-n2cc(C#Cc3cnccn3)cn2)cc1 [Compound 88, 2-((1-(4-fluorophenyl)-1H-pyrazol-4-yl)ethynyl)pyrazine]",≤ 500
21,"FC(F)(F)Oc1ccc(-n2cc(C#Cc3ccccc3)cn2)cc1 [Compound 89, 4-(phenylethynyl)-1-(4-(trifluoromethoxy)phenyl)-1H-pyrazole]",1000 to 5000
22,"FC(F)(F)Oc1ccc(-n2cc(C#Cc3ccccn3)cn2)cc1 [Compound 90, 2-((1-(4-(trifluoromethoxy)phenyl)-1H-pyrazol-4-yl)ethynyl)pyridine]",≤ 500
23,"FC(F)(F)Oc1ccc(-n2cc(C#Cc3cccnc3)cn2)cc1 [Compound 91, 3-((1-(4-(trifluoromethoxy)phenyl)-H-pyrazol-4-yl)ethynyl)pyridine]",1000 to 5000
24,"FC(F)(F)Oc1ccc(-n2cc(C#Cc3cccc(Cl)c3)cn2)cc1 [Compound 92, 4-((3-chlorophenyl)ethynyl)-1-(4-(trifluoromethoxy)phenyl)-1H-pyrazole]",≤ 500
25,FC(F)(F)Oc1ccc(-n2cc(C#Cc3ncccn3)cn2)cc1 [Compound 93],≤ 500
26,"FC(F)(F)Oc1ccc(-n2cc(C#Cc3ccncc3)cn2)cc1 [Compound 94, 4-((1-(4-(trifluoromethoxy)phenyl)-1H-pyrazol-4-yl)ethynyl)pyridine]",500 to 1000

# Same assay, conditions: Table 2; HEK293 cells stably expressing recombinant rat mGluR5; 15 min incubation of test compound, then submaximal glutamate; read-out: IC50 (FLIPR assay)
row,SMILES,IC50 [nM]
1,"Cc1cn(-c2cc(F)cc(C#N)c2)nc1C#Cc1ccccn1 [Compound 59, 3-fluoro-5-(4-methyl-3-(pyridin-2-ylethynyl)-1H-pyrazol-1-yl) benzonitrile]",≤ 500
2,"Cc1cn(-c2cc(F)cc(C#N)c2)nc1C#Cc1ncccn1 [Compound 60, 3-fluoro-5-(4-methyl-3-(pyrimidin-2-ylethynyl)-1H-pyrazol-1-yl) benzonitrile]",≤ 500
3,"N#Cc1cc(F)cc(-n2cc(Cl)c(C#Cc3ccccn3)n2)c1 [Compound 61, 3-(4-chloro-3-(pyridin-2-ylethynyl)-1H-pyrazol-1-yl)-5-fluorobenzonitrile]",≤ 500
4,"Fc1ccc(-n2ccc(C#Cc3ccccn3)n2)nc1 [Compound 67, 5-fluoro-2-(3-(pyridin-2-ylethynyl)-1H-pyrazol-1-yl)pyridine]",≤ 500
5,"Fc1ccc(-n2cc(Cl)c(C#Cc3ccccn3)n2)nc1 [Compound 69, 2-(4-chloro-3-(pyridin-2-ylethynyl)-1H-pyrazol-1-yl)-5-fluoropyridine]",500 to 1000
6,"Fc1cncc(-n2ccc(C#Cc3ccccn3)n2)c1 [Compound 70, 3-fluoro-5-(3-(pyridin-2-ylethnyl)-1H-pyrazol-1-yl)pyridine]",≤ 500
7,"C(#Cc1ccn(-c2ccccn2)n1)c1ccccn1 [Compound 71, 2-((1-(pyridin-2-yl)-1H-pyrazol-3-yl)ethynyl)pyridine]",≤ 500
8,"Cc1cn(-c2ccc(F)cn2)nc1C#Cc1ccccn1 [Compound 72, 5-fluoro-2-(4-methyl-3-(pyridin-2-ylethynyl)-1H-pyrazol-1-yl) pyridine]",500 to 1000
9,"Cc1cc(C#Cc2ccccn2)nn1-c1ccc(F)cn1 [Compound 73, 5-fluoro-2-(5-methyl-3-(pyridin-2-ylethynyl)-1H-pyrazol-1-yl)]",≤ 500
10,"Cc1cc(C#Cc2ccccc2)nn1-c1cc(F)cc(C#N)c1 [Compound 96, 3-fluoro-5-(5-methyl-3-(phenylethynyl)-1H-pyrazol-1-yl) benzonitrile]",≤ 500
11,"Cc1cc(C#Cc2ccccn2)nn1-c1cc(F)cc(C#N)c1 [Compound 97, 3-fluoro-5-(5-methyl-3-(pyridin-2-ylethynyl)-1H-pyrazol-1-yl) benzonitrile]",≤ 500
12,"Cc1cc(C#Cc2cccnc2)nn1-c1cc(F)cc(C#N)c1 [Compound 98, 3-fluoro-5-(5-methyl-3-(pyridin-3-ylethynyl)-1H-pyrazol-1-yl) benzonitrile]",≤ 500
13,"Cc1cc(C#Cc2cccc(Cl)c2)nn1-c1cc(F)cc(C#N)c1 [Compound 99, 3-(3-((3-chlorophenyl)ethynyl)-5-methyl-1H-pyrazol-1-yl)-5-fluorobenzonitrile]",≤ 500
14,"Cc1cc(C#Cc2ccnc(Cl)c2)nn1-c1cc(F)cc(C#N)c1 [Compound 100, 3-(3-((2-chloropyridin-4-yl)ethynyl)-5-methyl-1H-pyrazol-1-yl)-5-fluorobenzonitrile]",≤ 500
15,"Cc1cc(C#Cc2ncccn2)nn1-c1cc(F)cc(C#N)c1 [Compound 101, 3-fluoro-5-(5-methyl-3-(pyrimidin-2-ylethynyl)-H-pyrazol-1-yl) Benzonitrile]",≤ 500
16,"Cc1cc(C#Cc2ccncc2)nn1-c1cc(F)cc(C#N)c1 [Compound 102, 3-fluoro-5-(5-methyl-3-(pyridin-4-ylethynyl)-1H-pyrazol-1-yl) benzonitrile]",≤ 500
17,"Cc1cc(C#Cc2cnccn2)nn1-c1cc(F)cc(C#N)c1 [Compound 103, 3-fluoro-5-(5-methyl-3-(pyrazin-2-ylethynyl)-1H-pyrazol-1-yl) Benzonitrile]",≤ 500
18,N#Cc1cc(F)cc(-n2ccc(C#Cc3ccccc3)n2)c1 [Compound 104],1000 to 5000
19,"N#Cc1cc(F)cc(-n2ccc(C#Cc3ccccn3)n2)c1 [Compound 105, 3-fluoro-5-(3-(pyridin-2-ylethynyl)-1H-pyrazol-1-yl)benzonitrile]",≤ 500
20,"N#Cc1cc(F)cc(-n2ccc(C#Cc3cccnc3)n2)c1 [Compound 106, 3-fluoro-5-(3-(pyridin-3-ylethynyl)-1H-pyrazol-1-yl)benzonitrile]",1000 to 5000
21,"N#Cc1cc(F)cc(-n2ccc(C#Cc3cccc(Cl)c3)n2)c1 [Compound 107, 3-(3-((3-chlorophenyl)ethynyl)-1H-pyrazol-1-yl)-5-fluorobenzonitrile]",≤ 500
